For series [1], the target named is T1, Muscarinic acetylcholine receptor M1 (Homo sapiens) (UniProt P11229).
T1 sequence (whole entry): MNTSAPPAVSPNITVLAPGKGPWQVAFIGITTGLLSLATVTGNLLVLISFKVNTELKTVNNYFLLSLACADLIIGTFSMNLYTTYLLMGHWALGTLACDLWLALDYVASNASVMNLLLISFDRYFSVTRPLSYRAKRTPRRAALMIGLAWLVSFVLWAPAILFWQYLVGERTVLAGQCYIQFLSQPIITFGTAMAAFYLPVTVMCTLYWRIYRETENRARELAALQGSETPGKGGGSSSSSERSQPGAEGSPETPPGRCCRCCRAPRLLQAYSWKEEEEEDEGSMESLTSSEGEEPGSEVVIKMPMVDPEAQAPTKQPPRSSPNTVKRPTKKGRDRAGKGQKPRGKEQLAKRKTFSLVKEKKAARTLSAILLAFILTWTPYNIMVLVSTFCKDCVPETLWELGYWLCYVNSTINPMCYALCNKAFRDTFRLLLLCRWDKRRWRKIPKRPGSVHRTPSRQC
In words: Positive allosteric modulation of human mAChR1 expressed in CHONFAT cells assessed as potention of acetylcholine-induced effect incubated for 4 mins prior to acetylcholine addition measured after 4 mins by FLIPR assay. The class given is cell-based.

A short description of series [2]: Plasma protein binding in rat by equilibrium dialysis method. It is filed as ADME, cell-free. Particulars: read-out: PPB (converted). For orientation: Equilibrium dialysis compares concentrations on both sides of a semipermeable membrane.
The nature of series [3]: Plasma protein binding in human by equilibrium dialysis method. The class given is ADME, cell-free. Particulars: read-out: PPB (converted).
A short description of series [4]: Apparent passive permeability of the compound. It is filed as physicochemical. Particulars: not told.
Series [5] concerns the target MDR1 (ABCB1, P-glycoprotein) (Homo sapiens, UniProt P08183). In words: Effect on human MDR1-mediated drug transport assessed as efflux ratio of permeability from basolateral to apical side over apical to basolateral side. It is filed as ADME. Particulars: not told.
For another series, the system named is MDR1a. In words: Effect on rat MDR1a-mediated drug transport assessed as efflux ratio of permeability from basolateral to apical side over apical to basolateral side. It is filed as ADME. Particulars: not told.
Series [6] has as its system Mus musculus. In words: Reversal of scopolamine-induced memory deficit in ip dosed B6SJL mouse contextual fear conditioning model at 1 uM plasma level after 30 mins relative to vehicle-treated control. The class given is functional, organism-based.
For series [7], the system named is Plasma. The series can be described thus: Plasma concentration in Sprague-Dawley rat at 10 mg/kg, po. The class given is ADME, organism-based. More on the design: dose 10 mg/kg, route oral. Particulars: in vivo.
The subject of the next series is Cerebrospinal fluid. The series can be described thus: Drug uptake in cerebrospinal fluid in Sprague-Dawley rat at 10 mg/kg, po. The class given is ADME, organism-based. More on the design: dose 10 mg/kg, route oral. Particulars: in vivo, read-out: Drug uptake.
The next series concerns Nucleic Acid. In words: Ratio of drug uptake in Sprague-Dawley rat cerebrospinal fluid to unbound plasma level in rat. It is filed as ADME.
Series [8] is described as follows: Solubility of the compound at pH 2. It is filed as physicochemical. Particulars: buffer.
The nature of series [9]: Solubility of the compound at pH 7. It is filed as physicochemical. Particulars: buffer.
Series [10] is described as follows: Lipophilicity, log D of the compound by HPLC analysis. It is filed as physicochemical.
Series [11] deals with T1, Muscarinic acetylcholine receptor M1 (Homo sapiens). In words: Potentiation of human mAChR1 expressed in CHONFAT cells assessed as fold shift in acetylcholine response curve at 1.8 uM incubated for 4 mins prior to acetylcholine addition measured after 4 mins relative to control. It is filed as cell-based.
Series [12] has the same target. The series can be described thus: Potentiation of human mAChR1 expressed in CHONFAT cells assessed as fold shift acetylcholine response curve incubated for 4 mins prior to acetylcholine addition measured after 4 mins relative to control. The class given is cell-based.
In series [13] the test system is Mus musculus. The series can be described thus: Reversal of scopolamine-induced memory deficit in B6SJL mouse contextual fear conditioning model at 1 mg/kg, ip after 30 mins relative to vehicle-treated control. Details: dose 1 mg/kg. It is filed as functional, organism-based.
Series [14] concerns Plasma. The series can be described thus: Plasma concentration in B6SJL mouse contextual fear conditioning model at 1 mg/kg, ip. The class given is ADME, organism-based. Details: dose 1 mg/kg, route intraperitoneal. Particulars: in vivo.
Series [15] is described as follows: Clearance in rat at 2 mg/kg, iv. The class given is ADME, organism-based. More on the design: dose 2 mg/kg, route intravenous. Particulars: in vivo.
Series [16] is described as follows: Volume of distribution at steady state in rat at 2 mg/kg, iv. It is filed as ADME, organism-based. Details: dose 2 mg/kg, route intravenous. Particulars: in vivo, read-out: Vdss.
Series [17] in a line: Half life in rat at 2 mg/kg, iv. The class given is ADME, organism-based. Details: dose 2 mg/kg, route intravenous. Particulars: in vivo.
Series [18] can be described thus: Clearance in dog at 0.125 mg/kg, iv. It is filed as ADME, organism-based, Canis lupus familiaris. More on the design: dose 0.125 mg/kg, route intravenous. Particulars: in vivo.
A short description of series [19]: Volume of distribution at steady state in dog at 0.125 mg/kg, iv. More on the design: dose 0.125 mg/kg, route intravenous. The class given is ADME, organism-based, Canis lupus familiaris. Particulars: in vivo, read-out: Vdss.
The nature of series [20]: Half life in dog at 0.125 mg/kg, iv. It is filed as ADME, organism-based, Canis lupus familiaris. More on the design: dose 0.125 mg/kg, route intravenous. Particulars: in vivo.
Series [21] in a line: Fraction unbound in rat plasma by equilibrium dialysis method. It is filed as ADME, cell-free.
A short description of series [22]: Fraction unbound in human plasma by equilibrium dialysis method. The class given is ADME, cell-free.

≈ marks a conversion by molar mass, not a printed value. Calls of active or inactive are those of the source. No cut-off for these calls is given here.

This is an account of results in ChEMBL document CHEMBL3297692, “Discovery of naphthyl-fused 5-membered lactams as a new class of m1 positive allosteric modulators” (ACS Med Chem Lett, 2014).

Chain of MDR1 (ABCB1, P-glycoprotein) (P08183 whole entry): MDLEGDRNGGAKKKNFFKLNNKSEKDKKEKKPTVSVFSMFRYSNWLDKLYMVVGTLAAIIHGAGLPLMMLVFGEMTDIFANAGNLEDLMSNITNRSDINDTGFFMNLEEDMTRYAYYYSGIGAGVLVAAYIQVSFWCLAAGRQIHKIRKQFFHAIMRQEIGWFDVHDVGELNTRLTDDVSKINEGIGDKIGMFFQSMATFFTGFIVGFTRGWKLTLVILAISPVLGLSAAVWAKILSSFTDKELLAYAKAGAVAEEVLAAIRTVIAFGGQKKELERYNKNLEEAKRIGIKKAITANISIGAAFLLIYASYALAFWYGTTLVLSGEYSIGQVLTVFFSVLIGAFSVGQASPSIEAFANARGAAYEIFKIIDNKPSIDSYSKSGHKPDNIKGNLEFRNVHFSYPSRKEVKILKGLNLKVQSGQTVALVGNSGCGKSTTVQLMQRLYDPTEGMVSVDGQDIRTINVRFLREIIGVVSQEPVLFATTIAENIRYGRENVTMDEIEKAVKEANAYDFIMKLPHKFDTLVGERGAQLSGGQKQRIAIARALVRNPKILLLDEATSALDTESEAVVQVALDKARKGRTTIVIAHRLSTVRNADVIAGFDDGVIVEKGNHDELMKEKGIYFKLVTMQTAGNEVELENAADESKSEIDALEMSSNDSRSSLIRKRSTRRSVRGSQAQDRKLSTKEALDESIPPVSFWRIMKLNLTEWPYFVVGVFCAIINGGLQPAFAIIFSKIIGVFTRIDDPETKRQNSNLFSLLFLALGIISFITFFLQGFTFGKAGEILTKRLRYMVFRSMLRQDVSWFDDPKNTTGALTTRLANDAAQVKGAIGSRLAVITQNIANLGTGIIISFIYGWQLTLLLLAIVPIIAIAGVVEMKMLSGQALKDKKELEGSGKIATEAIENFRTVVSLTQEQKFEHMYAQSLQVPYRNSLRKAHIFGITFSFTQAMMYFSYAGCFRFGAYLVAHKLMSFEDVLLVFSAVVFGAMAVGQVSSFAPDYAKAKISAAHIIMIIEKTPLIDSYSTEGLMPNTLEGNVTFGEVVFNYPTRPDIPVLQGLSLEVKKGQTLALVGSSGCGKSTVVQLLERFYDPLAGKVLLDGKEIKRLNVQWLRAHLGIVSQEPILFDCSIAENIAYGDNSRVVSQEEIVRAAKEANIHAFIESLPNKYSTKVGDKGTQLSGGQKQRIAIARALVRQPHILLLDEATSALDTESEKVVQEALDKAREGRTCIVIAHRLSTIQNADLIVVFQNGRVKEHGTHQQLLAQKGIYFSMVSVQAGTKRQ

Regarding `N#CC1(c2cccnn2)CCN(Cc2cc3c(c4ccccc24)CN([C@H]2CCCC[C@@H]2O)C3=O)CC1`, the IP in [1] was 27 nM. In addition, the fraction unbound in series [2] was 0.146; in [3] it was 0.144. Besides, the Papp (in general, a coefficient for how fast a substance crosses the barrier) in series [4] was 27 ×10⁻⁶ cm/s.
Consider `N#CC1(c2ccncc2)CCN(Cc2cc3c(c4ccccc24)CN([C@H]2CCCC[C@@H]2O)C3=O)CC1`, for which the IP in series [1] is 22 nM. Besides, the Papp in [4] amounted to 30 ×10⁻⁶ cm/s. The results for the efflux ratio (in series [5]; with MDR1a) were 26 and 49, respectively.
On to `N#CC1(c2ccccn2)CCN(Cc2cc(C(=O)O)c(=O)n3ccccc23)CC1`, for which the outcome with Mus musculus [6] was Active.
Consider `N#CC1(c2ccccc2)CCN(Cc2cc3c(c4ccccc24)CN([C@H]2CCCC[C@@H]2O)C3=O)CC1`, for which, in series [1], the IP was 83 nM. The fraction unbound in series [2] was 0.006; in series [3], 0.011. Further, the Papp in series [4] is 23 ×10⁻⁶ cm/s. The efflux ratio (usually the permeability from basolateral to apical divided by that in the opposite direction, in the common usage) in series [5] is 1.7; with MDR1a, 3.4.
`N#CC1(c2ccccn2)CCN(Cc2cc3c(c4ccccc24)CN([C@H]2CCCC[C@@H]2O)C3=O)CC1`: the IP in [1] stood at 15 nM. Also, the fraction unbound in series [2] was 0.05; in series [3], 0.08; in [21], 0.05; in series [22], 0.08. Also, in [4], the Papp is 34 ×10⁻⁶ cm/s. The efflux ratio in series [5] stood at 3.2; in the series on MDR1a it was 4.3. Further, the concentration in the series on Plasma [7] was 5180 nM; in the series with Cerebrospinal fluid, 134 nM; in the series on Plasma [14], 1500 nM. Moreover, in the series on Nucleic Acid, the Ratio stood at 0.51. The solubility (usually the concentration that dissolves in the medium under given conditions) in [8] amounted to 195 µM (≈ 93.7 µg/mL); in [9], 11 µM (≈ 5.29 µg/mL). Besides, the logD – broadly, the decadic logarithm of the distribution of all forms, ionised or not, between an organic phase and buffer at a given pH – in series [10] came to 2.9. Further, the fold change (FC) in series [11] worked out at 40. Also, the Activity entry in series [12] was “Dose-dependent effect”. Also, in the series on Mus musculus [13], the result was Active. The clearance (commonly a measure of how efficiently the substance is removed, as volume per time) in series [15] stood at 4.1 mL/min/kg; in series [18], 2.1 mL/min/kg. The Vd in series [16] amounted to 2.8 L/kg; in series [19], 1.2 L/kg. Also, the half-life – broadly, how long it takes for the measured level to halve – is 12 h in series [17] and 6.7 h in series [20].
Consider `N#CC1(c2ccccn2)CCN(Cc2cc3c(c4ccccc24)CN(C2CCCOC2)C3=O)CC1` (centres undefined), for which, in [1], the IP amounted to 1500 nM.
On the same count and under the same terms, the figure for `N#CC1(c2ccccn2)CCN(Cc2cc3c(c4ccccc24)CN([C@H]2CCCC[C@H]2O)C3=O)CC1` is 150 nM.
For `CC1c2c(cc(CN3CCC(C#N)(c4ccccn4)CC3)c3ccccc23)C(=O)N1[C@H]1CCCC[C@@H]1O` (mixture of isomers), the IP in [1] was 19 nM. Moreover, the fraction unbound in series [2] is 0.014; in series [3] it was 0.06. The Papp in series [4] was determined as 29 ×10⁻⁶ cm/s. For the same molecule, the values for the efflux ratio (in series [5]; in the series on MDR1a) were 1.7 and 4.1, respectively. The concentration with Plasma [7] came to 1120 nM; in the series on Cerebrospinal fluid, 4.7 nM. For the same molecule, in the series with Nucleic Acid, the Ratio is listed as 0.3. The solubility is 198 µM in [8] and 19 µM in [9]. Besides, the logD in series [10] is 3.4.
Turning to `N#CC1(c2ccccn2)CCN(Cc2cc3c(c4ccccc24)CN(C2CCOCC2)C3=O)CC1`, in series [1], the IP turned out to be 280 nM.
On to `N#CC1(c2cnccn2)CCN(Cc2cc3c(c4ccccc24)CN([C@H]2CCCC[C@@H]2O)C3=O)CC1`, for which the IP in series [1] was determined as 31 nM. Moreover, the fraction unbound was 0.142 in series [2] and 0.086 in [3]. Besides, the Papp in series [4] is 31 ×10⁻⁶ cm/s. Besides, the values for the efflux ratio (in [5]; in the series on MDR1a) were 8 and 11, respectively.
Take `N#CC1(c2ccccn2)CCN(Cc2cc3c(c4ccccc24)CN([C@@H]2CCCC[C@H]2O)C3=O)CC1`: in series [1], the IP came to 540 nM.
As for `N#CC1(c2cccnc2)CCN(Cc2cc3c(c4ccccc24)CN([C@H]2CCCC[C@@H]2O)C3=O)CC1`, the IP in series [1] was 22 nM. For the same molecule, the Papp in [4] turned out to be 32 ×10⁻⁶ cm/s.
Turning to `N#CC1(c2ccccn2)CCN(Cc2cc3c(c4ccccc24)CN(c2ccccc2F)C3=O)CC1`, the IP in series [1] is 290 nM.
In the case of `N#CC1(c2ccncn2)CCN(Cc2cc3c(c4ccccc24)CN([C@H]2CCCC[C@@H]2O)C3=O)CC1`, the IP in series [1] amounted to 17 nM. Moreover, the fraction unbound in [2] is 0.07; in series [3], 0.09. For the same molecule, the Papp in series [4] was 29 ×10⁻⁶ cm/s. Besides, the efflux ratio came to 6 in [5] and 20 in the series with MDR1a.
As to `O=C1c2cc(CN3CCC(F)(c4ccccn4)CC3)c3ccccc3c2CN1[C@H]1CCCC[C@@H]1O`, in series [1], the IP came out at 58 nM. In addition, the values for the fraction unbound in [2] and in series [3] were 0.015 and 0.03, respectively. Besides, in series [4], the Papp worked out at 34 ×10⁻⁶ cm/s. Further, the efflux ratio is 2.1 in series [5] and 2.7 in the series on MDR1a.
Take `Cc1ccnc(C2(C#N)CCN(Cc3cc4c(c5ccccc35)CN([C@H]3CCCC[C@@H]3O)C4=O)CC2)c1`: the IP in [1] is 16 nM. Further, the fraction unbound in series [2] was 0.007; in series [3], 0.006. Also, the Papp in series [4] amounted to 22 ×10⁻⁶ cm/s. Also, the efflux ratio in [5] was found to be 1.3; in the series on MDR1a it was 4.5. Further, the concentration with Plasma [7] amounted to 2340 nM; in the series on Cerebrospinal fluid, 8.6 nM. The Ratio with Nucleic Acid was determined as 0.52. The figures for the solubility in series [8] and in series [9] were 179 µM (≈ 88.5 µg/mL) and 3 µM (≈ 1.48 µg/mL), respectively. In series [10], this molecule came in with a logD of 3.3.
For `Cc1cccc(C2(C#N)CCN(Cc3cc4c(c5ccccc35)CN([C@H]3CCCC[C@@H]3O)C4=O)CC2)n1`, the IP in series [1] came out at 27 nM. The fraction unbound in [2] and in series [3] was 0.01 throughout. The apparent permeability (Papp) in series [4] came out at 28 ×10⁻⁶ cm/s. Moreover, the efflux ratio in [5] came to 1.5; with MDR1a, 3.1.
